Reference: paper PMC11013143, “4-Chloroisocoumarins as Chlamydial Protease Inhibitors and Anti-Chlamydial Agents” (Molecules, 2024)

Experiments:
CtHtrA = target: T1, CtHtrA (Chlamydia trachomatis serovar D, UniProt P18584); assay: CtHtrA protease inhibition assay; format: biochemical; details: for Relative Potency against CtHtrA: [IC50 of control]/[IC50 test compound]; for Relative Selectivity: (relative CtHtrA potency)/(relative HLE potency); for IC50: IC50 against CtHtrA
T1 construct: made in house; host or cells: E. coli BL21(DE3), pET22b
Protocol: The inhibitory activity of compounds 2a–g against CtHtrA was evaluated. […] As these compounds are reportedly covalent inhibitors of serine proteases, a true IC50 is unable to be calculated. Instead, the residual activity of the protease is monitored over time in response to a range of compound concentrations, and an IC50 value is interpolated from a dose–response curve (see Figures S2–S4 and Tables S1 and S2). This IC50 value is then compared to a positive control (JO146 was used for 2a–g, and 2g was used for 6a–h), giving the ‘relative potency’. This is the established method for assessing CtHtrA inhibitory potency. […] This effect may be due to depth restrictions within the S1 subpocket, as kinetic studies on the rates of protease inhibition in HLE were reduced by larger C-3 alkoxy substituents. Chain branching (iso-propyl and sec-butyl substituents) increased the activity, resulting in a 1.4-fold increase for 2e over 2b and a 2.8-fold improvement for 2g over 2c.
CtHtrA was expressed using an procedure adapted from the literature. Recombinant E. coli BL21(DE3) pET22b was grown in LB media containing 100 ug/mL ampicillin to an OD600 of 0.5-0.6 in 5 × 400 mL batches at 37 °C. Isopropyl β-D-1-thioglactopyranoside (1 M, 400 µL, 1 mM final concentration) was added to each flask and incubated at 30 °C with shaking at 150 rpm for an additional 2.5 h. The culture was centrifuged at 4000× g for 15 min at 4 °C, and the cell pellet was harvested and resuspended in lysis buffer (50 mM phosphate, 10 mM imidazole, 500 mM NaCl, 0.1% Triton X-100, 10% glycerol). Lysozyme was added to the suspended cells and was sonicated in 15 cycles of 15 s, with one minute between cycles while maintaining 4 °C, and then centrifuged at 8000× g for 20 min to remove any debris, retaining the supernatant for protein purification.
TALON® metal affinity resin (Takara cat no. 635652, 5 mL) was added to each lysate tube and washed sequentially with lysis buffer (2 × 45 mL) and stringency buffer (4 × 45 mL) and then eluted with elution buffer (2 × 5 mL), allowing incubations at 4 °C for 20 min per wash, and centrifuging at 2500× g and 4 °C between washes to pellet the resin. The eluates were dialyzed in Tris buffer (pH 7.0, 50 mM, 4 L) with magnesium chloride (20 mM) at 4 °C five times over 24 h, with a minimum of three hours per dialysis change. Protein expression and isolation were confirmed with SDS-PAGE Coomassie stained gel, which was examined for the band at the correct size, and a BCA assay to confirm purified protein concentration prior to use.
CtHtrA was added to 25 wells in a black 96-well plate (40–80 µL, 10 µL increments), to which Tris-HCl buffer (50 mM, pH 7.0 with 20 mM MgCl2) was added to bring the total volume to 90 µL for 10 wells and 85 µL for the remaining 15. JO146 (10 µM, 5 µL) was added to 5 wells and JO146 (1 µM, 5 µL) was added to another 5 wells, with DMSO (5 µL) being added to the remaining 5 as a control. The plate was incubated at 37 °C for 10 min before substrate (MCA-ENLHLPLPIIFK-DNP, 10 µL, 1 mg/mL, 50% isopropanol in buffer) was added and analyzed in a TECAN Infinite Pro M200 plate reader with an excitation wavelength of 340 nm and fluorescence measured at 405 nm with four reads per well at 60 s intervals. A minimum volume of CtHtrA granting a fluorescence change of 300 min^−1 was used for subsequent assay.
The determined appropriate volume of CtHtrA in buffer was added to a 96-well non-transparent black plate and diluted to 85 µL with buffer solution. Drug or control (5 µL) at a maximum of 20% DMSO/80% buffer was added to the appropriate well with DMSO controls, and the plate was incubated for 10 min to allow activation by the protein. MCA-ENLHLPLPIIFK-DNP (Mimotopes, Australia, 1 mg/mL, 10 µL) was added and immediately monitored on a TECAN M200 Infinite plate reader at 37 °C every 60 s for 30 min, using the same wavelengths as for the activity evaluation. […]

C. trachomatis = assay: Chlamydia trachomatis growth inhibition assay in HEp-2 host cells; format: cell-based; details: 62.5 µM; for anti-chlamydial activity against C. trachomatis: 30 h post infection, HEp-2 host cells
Protocol: The workflow for the evaluation of chlamydial growth inhibition is described in the supplementary information (Figure S6). Briefly, HEp-2 cells were seeded in a 96-well plate and grown for 24 h; they were then infected with a fixed quantity of C. trachomatis. The infection was propagated for 4 h, and then a mixture of test compound and cycloheximide was added and the plate was incubated for a further 26 h (30 h post infection). The cells were fixed with methanol and then stained with fluorescent antibodies to visualize chlamydial inclusions, and the growth was measured using inclusion counts relative to vehicle controls.
HEp-2 cells were grown until confluent in a T-75 flask with DMEM (containing 10% FCS, gentamycin (0.05 mg/mL), streptomycin (0.1 mg/mL) and glutamine (Sigma-Aldrich Cat No. G7513, 4 mM); they were then harvested with trypsin, and the cell density was determined with a haemocytometer. Cells were diluted to 1 × 10^5 cells/mL, and 200 µL was dispensed to each well in a 96-well plate and then incubated for 24 h at 5% CO2 at 37 °C.
The supernatant was removed, and 100 µL of the respective chlamydia species in media (100,000 IFU/mL) was added, giving an MOI of 0.5. The plate was sealed and centrifuged at 500× g/28 °C for 30 min and then incubated for a further 3.5 h at 37 °C with 5% CO2. The supernatant was removed, and 100 µL of cycloheximide in DMEM (1 µg/mL) was added in addition to 100 µL of drug stock solution to each respective well with DMSO and media negative controls and also azithromycin positive control. The plate was incubated for a further 26 h.
The supernatant was removed, and wells were washed with PBS (2 × 150 µL) and then fixed in methanol for eight minutes. The methanol was removed and washed with additional PBS (2 × 150 µL) and stored at 4 °C with 100 µL PBS per well and then stained and analyzed using fluorescence microscopy, which is outlined below.
Cells in fixed plates were permeabilized with 0.5% Triton X-100 in PBS for 15 min and then blocked with 1% BSA in PBS for 45 min. Anti-HtrA polyclonal antibody (sera) (1:600) (in-house), anti-mouse tubulin (Sigma-Aldrich Cat no. T-5168, 1:3000) and DAPI (125 ng/mL) in PBS were added to each well (70 µL) and then gently shaken at room temperature while shielding it from light for 45 min. The primary antibodies were removed, and the wells were washed with PBS (4 × 150 µL). Secondary antibodies (goat anti-rabbit Alexafluor 488, Thermo Fisher Cat No. A-11008 and goat anti-mouse Alexafluor 568 (Thermo Fisher Cat No. A-11004)) in PBS (70 µL, 1:600 respectively) were added and the wells were gently shaken at room temperature while shielding them from light for 45 min. The antibodies were removed, and the wells were washed with PBS (5 × 150 µL); cells were then stored with PBS (100 µL per well) at 4 °C pending analysis.
Plates were analyzed on an INcell Analyzer 2200 (Cytiva Life Sciences, Marlborough, MA, USA) using both laser autofocus (10%) and software autofocus modes, with ten random images per well covering a minimum of 80% of the well at 10x magnification. Non-morphologically affected inclusions were counted using a macro in ImageJ (v1.54f), and MIC was defined as being one two-fold dilution more concentrated than MICTP (where MICTP is defined as the lowest concentration to produce ≥90% morphologically abnormal inclusions) relative to solvent controls.

[1] = target: T2, Human Leukocyte Elastase (HLE) (Homo sapiens, UniProt P08246); assay: HLE protease inhibition assay; format: biochemical; details: for IC50: Table S1, variable slope four parameter fit, read-out: IC50 against HLE; for Relative Potency against HLE: [IC50 of JO146]/[IC50 test compound]
T2 construct: purchased Athens Research and Technology 16-15-051200
T2 sequence (P08246 30-247 limits assumed): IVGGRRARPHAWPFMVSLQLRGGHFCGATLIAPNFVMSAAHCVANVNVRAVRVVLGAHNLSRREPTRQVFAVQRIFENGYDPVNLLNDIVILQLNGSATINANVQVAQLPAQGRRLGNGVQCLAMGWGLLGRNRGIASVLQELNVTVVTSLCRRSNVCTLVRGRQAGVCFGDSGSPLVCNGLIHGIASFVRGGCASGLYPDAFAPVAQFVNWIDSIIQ
Protocol: Elastase was purchased from Athens Research and Technology (Cat No. 16-15-051200). Elastase (100 µg) was dissolved in Tris buffer (100 mM Tris, 20 mM CaCl2, pH 8.1, 3.14 mL), giving a concentration of 1.117 µM, and 25 µL was added to each well containing the respective inhibitor. The plate was incubated at 37 °C for 15 min.
N-Suc-AAA-pNA (Sigma Aldrich, Bayswater, Australia, S4760, 100 µL, 1 mg/mL, […]) was added to each well, and the absorbance was monitored every six minutes at 405 nm. The rate of change of absorbance was used as a comparison to controls to determine the % inhibition of protein in Microsoft Excel^TM (v2402), and these values were exported to GraphPad Prism (v8.0.1) for IC50 calculation.

[2] = target: T2, Human Leukocyte Elastase (HLE); design: method as in PMID 3910097; details: cited from earlier work
[3] = Table S2, Batch 1, control JO146
[4] = Table S2, Batch 2, control JO146

T1 sequence (P18584 17-497): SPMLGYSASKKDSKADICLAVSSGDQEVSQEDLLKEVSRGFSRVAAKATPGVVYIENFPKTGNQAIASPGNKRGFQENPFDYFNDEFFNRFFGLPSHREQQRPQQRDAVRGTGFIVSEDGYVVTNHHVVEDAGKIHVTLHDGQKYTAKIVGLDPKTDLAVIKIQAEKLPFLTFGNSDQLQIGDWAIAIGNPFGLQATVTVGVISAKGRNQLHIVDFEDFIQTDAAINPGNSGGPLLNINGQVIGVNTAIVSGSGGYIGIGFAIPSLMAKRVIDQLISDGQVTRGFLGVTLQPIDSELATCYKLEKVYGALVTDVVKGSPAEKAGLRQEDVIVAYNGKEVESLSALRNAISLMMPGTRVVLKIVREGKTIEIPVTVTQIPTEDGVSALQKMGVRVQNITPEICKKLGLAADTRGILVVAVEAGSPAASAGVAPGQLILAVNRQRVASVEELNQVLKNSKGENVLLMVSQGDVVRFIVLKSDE

| SMILES | Relative Selectivity (CtHtrA) | IC50 (CtHtrA; [3]) | Relative Potency against CtHtrA (CtHtrA; control JO146) | IC50 [1] | Relative Potency against HLE [1] | also measured |
| --- | --- | --- | --- | --- | --- | --- |
| CCC(C)Oc1oc(=O)c2cc(Br)ccc2c1Cl (racemic) [Compound 6f, (±)-7-Bromo-3-sec-butoxy-4-chloro-isocoumarin] |  |  |  |  |  | Relative Potency against CtHtrA (CtHtrA; control 2g): 0.057; anti-chlamydial activity against C. trachomatis (C. trachomatis): abolished observable activity |
| CCOc1oc(=O)c2ccccc2c1Cl [Compound 2b, 3-Ethoxy-4-chloroisocoumarin] | 56.4 | 19.1 µM | 3.73 | 12.3 µM | 0.0664 |  |
| CCC(C)Oc1oc(=O)c2cc(Cl)ccc2c1Cl (racemic) [Compound 6g, (±)-3-sec-Butoxy-4,7-dichloro-isocoumarin] |  |  |  |  |  | IC50 (CtHtrA; Table S2, Batch 5, control 2g): 71.8 µM; Relative Potency against CtHtrA (CtHtrA; control 2g): 0.390; anti-chlamydial activity against C. trachomatis (C. trachomatis): did not significantly affect the efficacy of 2g; statistical significance of anti-chlamydial activity (C. trachomatis; relative to solvent controls): statistically significant anti-chlamydial activity |
| CC(C)COc1oc(=O)c2ccccc2c1Cl [Compound 2f, 3-iso-Butoxy-4-chloroisocoumarin] | 4.08 |  | 1.50 | 2.22 µM | 0.368 | IC50 (CtHtrA; [4]): 40 µM |
| O=c1oc(Cl)cc2ccccc12 [Compound 3-choro-] |  |  |  |  |  | molecular turnover against HLE [2]: 15 |
| CCCCOc1oc(=O)c2ccccc2c1Cl [Compound 2d, 3-Butoxy-4-chloroisocoumarin] | 5.08 | 45.5 µM | 1.57 | 2.64 µM | 0.310 |  |
| O=c1oc(Cl)c(Cl)c2ccccc12 [3,4-dichloroisocoumarin] |  |  |  |  |  | molecular turnover against HLE [2]: 3.1 |
| CC(C)Oc1oc(=O)c2ccccc2c1Cl [Compound 2e, 3-iso-Propoxy-4-chloroisocoumarin] | 12.7 |  | 5.32 | 1.95 µM | 0.419 | fold increase in CtHtrA inhibitory activity (CtHtrA; 2e over 2b): 1.4 fold; IC50 (CtHtrA; [4]): 11.3 µM |
| CCCOc1oc(=O)c2ccccc2c1Cl [Compound 2c, 3-Propoxy-4-chloroisocoumarin] | 6.92 | 32 µM | 2.23 | 2.53 µM | 0.323 |  |
